# Target: Delta-type opioid receptor (Homo sapiens, UniProt P41143)
# Test: In vitro binding affinity against cloned human Opioid receptor delta 1 expressed in HEK 293S cells
# Chain of Delta-type opioid receptor (P41143 whole entry): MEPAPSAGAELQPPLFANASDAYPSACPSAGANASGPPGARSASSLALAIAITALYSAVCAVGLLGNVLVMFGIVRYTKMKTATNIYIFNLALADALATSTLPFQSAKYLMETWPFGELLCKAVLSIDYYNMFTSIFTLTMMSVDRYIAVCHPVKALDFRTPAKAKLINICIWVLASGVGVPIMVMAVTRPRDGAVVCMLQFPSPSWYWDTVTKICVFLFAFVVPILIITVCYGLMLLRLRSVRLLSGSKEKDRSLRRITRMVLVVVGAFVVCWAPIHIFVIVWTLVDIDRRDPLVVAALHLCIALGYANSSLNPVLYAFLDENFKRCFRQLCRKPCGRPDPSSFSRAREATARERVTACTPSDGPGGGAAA
structure (smiles),measurement,value
"C[C@H]1C2C3=CC=CCC3[C@@H](Cc3ccccc32)N1C (stereo partly drawn) [16,17-dimethyl-(16S)-17-azatetracyclo[7.6.2.02,7.010,15]heptadeca-2(7),3,5,12,14-pentaene]",IC50,> 10 µM
